pIC50: −log10 of the molar value. Counter-ions that a name gives are not always drawn.
Key:
p110α/p85 = p110α/p85 (Homo sapiens, UniProt P42336); assay: Reversible inhibition of isolated enzyme, lipid kinase assay; type: biochemical; conditions: recombinant enzyme, 100 μM ATP, 1 hr, average of two experiments
Protocol: Compounds were evaluated for their ability to inhibit Class I PI 3-kinase enzymes p110δ/p85, p110α/p85, and p110β/p85. Reaction mixtures comprising 0.1 μg of a recombinant enzyme, 10 μg of L-α-phosphatidylinositol, and 2× Lipid Kinase Buffer (40 mM Tris-HCl, pH 7.4, 200 mM NaCl, 1 mM EDTA), which contains either DMSO only as a control or the test compound in DMSO (the final DMSO concentration is 1%), were activated by the addition of an ATP mix (5 mM MgCl2, 100 μM ATP, and 0.1 μL [γ^33P]ATP). Reactions were incubated at room temperature for 1 hr, and then stopped by the addition of 1M HCl. The lipids were then extracted using a two step procedure. Firstly, 200 μL of chloroform/methanol (1:1) was added, the biphasic reactions mixed and centrifuged briefly, and the inorganic phase was removed and discarded. Following this, 80 μL of methanol:HCl (1:1) was added and the same procedure followed. The organic phase (70 μL) was then transferred to a clean 1.6 mL tube and the reactions were dried using a Speedvac, with no heating, for 30 min. The reactions were spotted onto TLC plates (Merck Ltd) and developed for 1 hr in propanol-1:2 M acetic acid (13:7). The TLC plates were then dried at room temperature and quantified using a phosphorimager (StormImager, Amersham). Nine compound concentrations were used for each test compound to determine its IC50 value. Each experiment was performed twice and the average IC50 value is used herein.

Chain of p110α/p85 (P42336 whole entry): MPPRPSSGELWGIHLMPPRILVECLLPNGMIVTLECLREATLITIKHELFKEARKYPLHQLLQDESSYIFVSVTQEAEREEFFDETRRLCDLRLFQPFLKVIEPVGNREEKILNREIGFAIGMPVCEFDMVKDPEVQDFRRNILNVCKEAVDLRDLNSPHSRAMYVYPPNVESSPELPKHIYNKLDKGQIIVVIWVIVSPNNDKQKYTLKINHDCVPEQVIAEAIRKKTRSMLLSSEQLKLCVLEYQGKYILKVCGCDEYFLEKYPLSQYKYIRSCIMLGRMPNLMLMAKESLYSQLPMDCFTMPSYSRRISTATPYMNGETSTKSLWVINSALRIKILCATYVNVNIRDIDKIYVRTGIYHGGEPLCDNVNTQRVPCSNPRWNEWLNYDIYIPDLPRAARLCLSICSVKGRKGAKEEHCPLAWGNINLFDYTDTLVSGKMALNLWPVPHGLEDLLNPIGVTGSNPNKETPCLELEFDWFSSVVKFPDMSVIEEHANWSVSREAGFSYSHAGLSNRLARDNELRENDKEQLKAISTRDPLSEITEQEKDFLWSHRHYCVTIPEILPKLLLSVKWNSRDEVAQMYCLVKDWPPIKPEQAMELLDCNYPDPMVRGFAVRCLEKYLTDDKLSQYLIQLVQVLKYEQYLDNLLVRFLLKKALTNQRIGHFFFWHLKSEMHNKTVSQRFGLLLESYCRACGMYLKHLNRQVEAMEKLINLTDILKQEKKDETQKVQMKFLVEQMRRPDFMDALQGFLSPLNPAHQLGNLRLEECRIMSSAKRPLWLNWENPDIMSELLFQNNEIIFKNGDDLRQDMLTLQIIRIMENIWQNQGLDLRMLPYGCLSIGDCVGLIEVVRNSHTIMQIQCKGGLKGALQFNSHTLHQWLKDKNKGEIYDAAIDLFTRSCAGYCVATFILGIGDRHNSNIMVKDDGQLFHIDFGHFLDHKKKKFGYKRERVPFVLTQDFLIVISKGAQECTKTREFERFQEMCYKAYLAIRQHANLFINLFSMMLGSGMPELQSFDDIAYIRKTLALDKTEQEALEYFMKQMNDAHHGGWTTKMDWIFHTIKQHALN
Chain of p110α/p85 (P27986 whole entry partner): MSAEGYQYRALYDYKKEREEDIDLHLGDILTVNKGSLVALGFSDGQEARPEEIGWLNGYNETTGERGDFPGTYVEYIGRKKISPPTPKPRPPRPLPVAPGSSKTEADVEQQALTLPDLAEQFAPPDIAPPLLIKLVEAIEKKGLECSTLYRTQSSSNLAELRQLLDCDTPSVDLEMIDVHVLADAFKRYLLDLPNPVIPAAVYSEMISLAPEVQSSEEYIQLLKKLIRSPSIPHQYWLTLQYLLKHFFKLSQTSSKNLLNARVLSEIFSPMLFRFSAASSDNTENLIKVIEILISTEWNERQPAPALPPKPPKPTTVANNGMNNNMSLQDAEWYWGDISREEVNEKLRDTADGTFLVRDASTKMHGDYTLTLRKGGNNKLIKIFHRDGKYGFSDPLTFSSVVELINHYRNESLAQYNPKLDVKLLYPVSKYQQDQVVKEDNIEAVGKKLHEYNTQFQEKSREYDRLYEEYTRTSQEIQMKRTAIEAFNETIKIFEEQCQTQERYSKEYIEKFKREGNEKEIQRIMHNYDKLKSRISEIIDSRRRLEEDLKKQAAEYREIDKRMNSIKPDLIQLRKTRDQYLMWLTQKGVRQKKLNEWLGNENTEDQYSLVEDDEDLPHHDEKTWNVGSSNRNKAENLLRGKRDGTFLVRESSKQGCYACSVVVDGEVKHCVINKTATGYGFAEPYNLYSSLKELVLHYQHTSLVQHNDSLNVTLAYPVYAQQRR

| melting point | pIC50 (p110α/p85) | SMILES |
| --- | --- | --- |
| 243 to 247 °C | – | CN(C)CCCOc1cccc2c1nc(C(F)F)n2-c1nc(N2CCOCC2)nc(N2CCN(S(=O)(=O)CCl)CC2)n1 (as salt: hydrochloride) [Example 13] |
| 242 to 245 °C | – | O=C(CCl)N1CCN(c2nc(-c3cccc(O)c3)nc(N3CCOCC3)n2)CC1 [Example 1, 3-[4-[4-(chloroacetyl)-1-piperazinyl]-6-(4-morpholinyl)-1,3,5-triazin-2-yl]phenol] |
| 217 to 219 °C | – | CCOc1cccc2c1nc(C(F)F)n2-c1nc(N2CCOCC2)nc(N2CCN(C(=O)CCl)CC2)n1 [Example 2, 1-[4-[4-(chloroacetyl)-1-piperazinyl]-6-(4-morpholinyl)-1,3,5-triazin-2-yl]-2-(difluoromethyl)-4-ethoxy-1H-benzimidazole] |
| 267 to 270 °C | – | O=C(CCl)N1CCN(c2nc(N3CCOCC3)nc(-n3c(C(F)F)nc4c(O)cccc43)n2)CC1 [Example 5, 1-[4-[4-(Chloroacetyl)-1-piperazinyl]-6-(4-morpholinyl)-1,3,5-triazin-2-yl]-2-(difluoromethyl)-1H-benzimidazol-4-ol] |
| 275 to 278 °C | – | COc1cccc2c1nc(C(F)F)n2-c1nc(N2CCOCC2)nc(N2CCN(C(=O)C(Cl)Cl)CC2)n1 [Example 7, 1-[4-[4-(dichloroacetyl)-1-piperazinyl]-6-(4-morpholinyl)-1,3,5-triazin-2-yl]-2-(difluoromethyl)-4-methoxy-1H-benzimidazole] |
| 261 to 263 °C | > 7.00 | COc1cccc2c1nc(C(F)F)n2-c1nc(N2CCOCC2)nc(N2CCN(S(=O)(=O)CCl)CC2)n1 [Example 11, 1-[4-{4-[(chloromethyl)sulfonyl]-1-piperazinyl}-6-(4-morpholinyl)-1,3,5-triazin-2-yl]-2-(difluoromethyl)-4-methoxy-1H-benzimidazole] |
| 259 to 262 °C | > 7.00 | COc1cccc2c1nc(C(F)F)n2-c1nc(N2CCOCC2)nc(N2CCN(S(=O)(=O)CBr)CC2)n1 [Example 12, 1-[4-{4-[(bromomethyl)sulfonyl]-1-piperazinyl}-6-(4-morpholinyl)-1,3,5-triazin-2-yl]-2-(difluoromethyl)-4-methoxy-1H-benzimidazole] |
| 220 to 222 °C | 6.00 to 7.00 | COc1cccc2c1nc(C(F)F)n2-c1cc(N2CCN(S(=O)(=O)CCl)CC2)nc(N2CCOCC2)n1 [Example 15, 1-[6-{4-[(chloromethyl)sulfonyl]-1-piperazinyl}-2-(4-morpholinyl)-4-pyrimidinyl]-2-(difluoromethyl)-4-methoxy-1H-benzimidazole] |
| 215 to 218 °C | > 7.00 | COc1cccc2c1nc(C(F)F)n2-c1cc(N2CCOCC2)nc(N2CCN(S(=O)(=O)CCl)CC2)n1 [Example 16, 1-[2-{4-[(chloromethyl)sulfonyl]-1-piperazinyl}-6-(4-morpholinyl)-4-pyrimidinyl]-2-(difluoromethyl)-4-methoxy-1H-benzimidazole] |
| – | > 7.00 | COc1cccc2c1nc(C(F)F)n2-c1nc(N2CCOCC2)nc(N2CC[C@H](NC(=O)CCl)C2)n1 [Example 26, 2-chloro-N-{(3S)-1-[4-[2-(difluoromethyl)-4-methoxy-1H-benzimidazol-1-yl]-6-(4-morpholinyl)-1,3,5-triazin-2-yl]pyrrolidinyl}acetamide] |
| – | > 7.00 | COc1cccc2c1nc(C(F)F)n2-c1nc(N2CCOCC2)nc(N2CCC[C@H](N(C)C(=O)CCl)C2)n1 [Example 36, 2-chloro-N-{(3S)-1-[4-[2-(difluoromethyl)-4-methoxy-1H-benzimidazol-1-yl]-6-(4-morpholinyl)-1,3,5-triazin-2-yl]piperidinyl}-N-methylacetamide] |
| – | > 7.00 | COc1cccc2c1nc(C(F)F)n2-c1nc(N[C@H]2CCCN(C(=O)CCl)C2)nc(N2CCOCC2)n1 [Example 38] |

The next lines start with the compound.

| SMILES | melting point | pIC50 (p110α/p85) |
| --- | --- | --- |
| COc1cccc2c1nc(C(F)F)n2-c1nc(-c2ccncc2)nc(N2CCN(C(=O)CCl)CC2)n1 (as salt: hydrochloride) [Example 6, 1-[4-[4-(chloroacetyl)-1-piperazinyl]-6-(4-pyridinyl)-1,3,5-triazin-2-yl]-2-(difluoromethyl)-4-methoxy-1H-benzimidazole] | > 300 °C | – |
| CN(C)CCCOc1cccc2c1nc(C(F)F)n2-c1nc(N2CCOCC2)nc(N(C)C2CCN(C(=O)CCl)CC2)n1 (as salt: hydrochloride) [Example 20, N-[1-(chloroacetyl)-4-piperidinyl]-4-{2-(difluoromethyl)-4-[3-(dimethylamino)propoxy]-1H-benzimidazol-1-yl}-N-methyl-6-(4-morpholinyl)-1,3,5-triazin-2-amine] | 128 °C (dec.) | – |
| O=C(CCl)N1CCN(c2nc(N3CCOCC3)nc(-n3c(C(F)F)nc4ccccc43)n2)CC1 [Example 3, 1-[4-[4-(Chloroacetyl)-1-piperazinyl]-6-(4-morpholinyl)-1,3,5-triazin-2-yl]-2-(difluoromethyl)-1H-benzimidazole] | 189 to 191 °C | – |
| COc1cccc2c1nc(C(F)F)n2-c1nc(N2CCOCC2)nc(N2CCN(C(=O)C(Cl)(Cl)Cl)CC2)n1 [Example 8, 2-(difluoromethyl)-1-{4-(4-morpholinyl)-6-[4-(trichloroacetyl)-1-piperazinyl]-1,3,5-triazin-2-yl}-1H-benzimidazol-4-yl methyl ether] | – | > 7.00 |
| COc1cccc2c1nc(C(F)F)n2-c1nc(N2CCOCC2)nc(N2CCN(C(=O)COS(C)(=O)=O)CC2)n1 [Example 9, 2-{4-[4-[2-(difluoromethyl)-4-methoxy-1H-benzimidazol-1-yl]-6-(4-morpholinyl)-1,3,5-triazin-2-yl]-1-piperazinyl}-2-oxoethyl methanesulfonate] | 176 to 180 °C | > 7.00 |
| COc1cccc2c1nc(C(F)F)n2-c1nc(N2CCOCC2)nc(N2CCN(C(=O)C(C)Cl)CC2)n1 (centres unmarked) [Example 10, 1-[4-[4-(2-chloropropanoyl)-1-piperazinyl]-6-(4-morpholinyl)-1,3,5-triazin-2-yl]-2-(difluoromethyl)-4-methoxy-1H-benzimidazole] | – | > 7.00 |
| CN(C)CCCOc1cccc2c1nc(C(F)F)n2-c1nc(N2CCOCC2)nc(N2CCN(S(=O)(=O)CCl)CC2)n1 [Example 13] | – | < 6.00 |
| COc1cccc2c1nc(C(F)F)n2-c1nc(N2CCOCC2)cc(N2CCN(S(=O)(=O)CCl)CC2)n1 [Example 14, 1-[4-{4-[(chloromethyl)sulfonyl]-1-piperazinyl}-6-(4-morpholinyl)-2-pyrimidinyl]-2-(difluoromethyl)-4-methoxy-1H-benzimidazole] | 229 to 232 °C | > 7.00 |
| COc1cccc2c1nc(C(F)F)n2-c1nc(C2CCN(C(=O)CCl)CC2)nc(N2CCOCC2)n1 [Example 17, 1-[4-[1-(chloroacetyl)-4-piperidinyl]-6-(4-morpholinyl)-1,3,5-triazin-2-yl]-2-(difluoromethyl)-4-methoxy-1H-benzimidazole] | 241 to 243 °C | > 7.00 |
| COc1cccc2c1nc(C(F)F)n2-c1nc(NC2CCN(C(=O)CCl)CC2)nc(N2CCOCC2)n1 [Example 18, N-[1-(chloroacetyl)-4-piperidinyl]-4-[2-(difluoromethyl)-4-methoxy-1H-benzimidazol-1-yl]-6-(4-morpholinyl)-1,3,5-triazin-2-amine] | 270 to 273 °C | > 7.00 |
| COc1cccc2c1nc(C(F)F)n2-c1nc(N2CCOCC2)nc(N(C)C2CCN(C(=O)CCl)CC2)n1 [Example 19, N-[1-(chloroacetyl)-4-piperidinyl]-4-[2-(difluoromethyl)-4-methoxy-1H-benzimidazol-1-yl]-N-methyl-6-(4-morpholinyl)-1,3,5-triazin-2-amine] | 211 to 213 °C | > 7.00 |
| CN(C)CCCOc1cccc2c1nc(C(F)F)n2-c1nc(N2CCOCC2)nc(N(C)C2CCN(C(=O)CCl)CC2)n1 [Example 20, N-[1-(chloroacetyl)-4-piperidinyl]-4-{2-(difluoromethyl)-4-[3-(dimethylamino)propoxy]-1H-benzimidazol-1-yl}-N-methyl-6-(4-morpholinyl)-1,3,5-triazin-2-amine] | – | 6.00 to 7.00 |
| CN(C)CCCOc1cccc2c1nc(C(F)F)n2-c1nc(N2CCOCC2)nc(N2CCC(N(C)C(=O)CCl)CC2)n1 [Example 24, 2-chloro-N-{1-[4-{2-(difluoromethyl)-4-[3-(dimethylamino)propoxy]-1H-benzimidazol-1-yl}-6-(4-morpholinyl)-1,3,5-triazin-2-yl]-4-piperidinyl}-N-methylacetamide] | – | 6.00 to 7.00 |
| CN(C)CCCOc1cccc2c1nc(C(F)F)n2-c1nc(OC2CCN(C(=O)CCl)CC2)nc(N2CCOCC2)n1 [Example 46, 3-{[1-[4-{[1-(chloroacetyl)-4-piperidinyl]oxy}-6-(4-morpholinyl)-1,3,5-triazin-2-yl]-2-(difluoromethyl)-1H-benzimidazol-4-yl]oxy}-N,N-dimethyl-1-propanamine] | – | 6.00 to 7.00 |
